Data set [1] can be described thus: n-Octanol/PBS partition coefficient, logD of the compound at pH 7.4. The format is physicochemical.
Data set [2] in a line: Apparent permeability of the compound from apical to basolateral side in human Caco-2 cells at pH 6.5 to 7.4. As to conditions: Caco-2, pH 6.5. The format is ADME, cell-based.
Data set [3] can be described thus: Apparent permeability across apical to basolateral side in human Caco-2 cells assessed as drug recovery at pH 6.5 to 7.4. As to conditions: Caco-2, pH 6.5, read-out: Drug recovery. The class given is ADME, cell-based. A general note: Caco-2 cells form a polarised layer with tight junctions and transporters.
Data set [4] can be described thus: Aqueous solubility of compound by HPLC analysis. The class given is physicochemical.
In another data set the test system is CCRF-CEM. The experiment in a line: Anticancer activity against human CCRF-CEM cells assessed as cell growth inhibition incubated for 48 hrs by SRB assay. The format is functional.
For another data set, the system named is EKVX. The experiment in a line: Anticancer activity against human EKVX cells assessed as cell growth inhibition incubated for 48 hrs by SRB assay. The class given is functional. In general terms: In SRB staining, fixed cells bind dye roughly in proportion to their protein.
The subject of the next data set is HOP-62. The experiment in a line: Anticancer activity against human HOP-62 cells assessed as cell growth inhibition incubated for 48 hrs by SRB assay. The class given is functional.
The test system of a further data set is NCI-H226. Kind of data set: Anticancer activity against human NCI-H226 cells assessed as cell growth inhibition incubated for 48 hrs by SRB assay. The format is functional.
Data set [5] deals with NCI-H23. The experiment in a line: Anticancer activity against human NCI-H23 cells assessed as cell growth inhibition incubated for 48 hrs by SRB assay. The class given is functional.
The test system of a further data set is NCI-H322M. The experiment in a line: Anticancer activity against human NCI-H322M cells assessed as cell growth inhibition incubated for 48 hrs by SRB assay. The format is functional.
For another data set, the system named is NCI-H460. The experiment in a line: Anticancer activity against human NCI-H460 cells assessed as cell growth inhibition incubated for 48 hrs by SRB assay. The format is functional.
Another data set deals with NCI-H522. The experiment in a line: Anticancer activity against human NCI-H522 cells assessed as cell growth inhibition incubated for 48 hrs by SRB assay. The class given is functional.
A further data set concerns COLO 205. The experiment in a line: Anticancer activity against human COLO 205 cells assessed as cell growth inhibition incubated for 48 hrs by SRB assay. The class given is functional.
A further data set relates to HCT-15. The experiment in a line: Anticancer activity against human HCT-15 cells assessed as cell growth inhibition incubated for 48 hrs by SRB assay. The format is functional.
Another data set relates to HT-29. Kind of data set: Anticancer activity against human HT-29 cells assessed as cell growth inhibition incubated for 48 hrs by SRB assay. The class given is functional.
Another data set concerns SW-620. Kind of data set: Anticancer activity against human SW-620 cells assessed as cell growth inhibition incubated for 48 hrs by SRB assay. The format is functional.
A further data set concerns SF-268. The experiment in a line: Anticancer activity against human SF-268 cells assessed as cell growth inhibition incubated for 48 hrs by SRB assay. The format is functional.
The test system of a further data set is U-251. The experiment in a line: Anticancer activity against human U-251 cells assessed as cell growth inhibition incubated for 48 hrs by SRB assay. The format is functional.
A further data set relates to Malme-3M. Kind of data set: Anticancer activity against human Malme-3M cells assessed as cell growth inhibition incubated for 48 hrs by SRB assay. The format is functional.
A further data set deals with M14. Kind of data set: Anticancer activity against human M14 cells assessed as cell growth inhibition incubated for 48 hrs by SRB assay. The format is functional.
Another data set deals with SK-MEL-2. Kind of data set: Anticancer activity against human SK-MEL-2 cells assessed as cell growth inhibition incubated for 48 hrs by SRB assay. The class given is functional.
A further data set deals with SK-MEL-28. The experiment in a line: Anticancer activity against human SK-MEL-28 cells assessed as cell growth inhibition incubated for 48 hrs by SRB assay. The class given is functional.
For data set [6], the system named is UACC-257. The experiment in a line: Anticancer activity against human UACC-257 cells assessed as cell growth inhibition incubated for 48 hrs by SRB assay. The class given is functional.
The subject of data set [7] is IGROV-1. Kind of data set: Anticancer activity against human IGROV-1 cells assessed as cell growth inhibition incubated for 48 hrs by SRB assay. The class given is functional.
The subject of another data set is NCI/ADR-RES. Kind of data set: Anticancer activity against human NCI/ADR-RES cells assessed as cell growth inhibition incubated for 48 hrs by SRB assay. The class given is functional.
In another data set the test system is SK-OV-3. The experiment in a line: Anticancer activity against human SK-OV-3 cells assessed as cell growth inhibition incubated for 48 hrs by SRB assay. The format is functional.
For the next data set, the system named is A498. The experiment in a line: Anticancer activity against human A498 cells assessed as cell growth inhibition incubated for 48 hrs by SRB assay. The format is functional.
In data set [8] the test system is ACHN. Kind of data set: Anticancer activity against human ACHN cells assessed as cell growth inhibition incubated for 48 hrs by SRB assay. The format is functional.
The next data set deals with SN12C. Kind of data set: Anticancer activity against human SN12C cells assessed as cell growth inhibition incubated for 48 hrs by SRB assay. The format is functional.
Data set [9] concerns TK-10. Kind of data set: Anticancer activity against human TK-10 cells assessed as cell growth inhibition incubated for 48 hrs by SRB assay. The class given is functional.
Another data set relates to UO-31. Kind of data set: Anticancer activity against human UO-31 cells assessed as cell growth inhibition incubated for 48 hrs by SRB assay. The format is functional.
In another data set the test system is PC-3. The experiment in a line: Anticancer activity against human PC-3 cells assessed as cell growth inhibition incubated for 48 hrs by SRB assay. The class given is functional.
In the next data set the test system is MCF7. The experiment in a line: Anticancer activity against human MCF7 cells assessed as cell growth inhibition incubated for 48 hrs by SRB assay. The class given is functional.
The test system of the next data set is MDA-MB-231. Kind of data set: Anticancer activity against human MDA-MB-231 cells assessed as cell growth inhibition incubated for 48 hrs by SRB assay. The format is functional.
Data set [10] relates to MDA-MB-468. Kind of data set: Anticancer activity against human MDA-MB-468 cells assessed as cell growth inhibition incubated for 48 hrs by SRB assay. The format is functional.
In a further data set the test system is HL-60. Kind of data set: Anticancer activity against human HL-60 cells assessed as total cell growth inhibition incubated for 48 hrs by SRB assay. The class given is functional.
In another data set the test system is MOLT-4. The experiment in a line: Anticancer activity against human MOLT-4 cells assessed as total cell growth inhibition incubated for 48 hrs by SRB assay. The class given is functional.
Another data set relates to HOP-92. Kind of data set: Anticancer activity against human HOP-92 cells assessed as total cell growth inhibition incubated for 48 hrs by SRB assay. The class given is functional.
The subject of data set [11] is NCI-H23. Kind of data set: Anticancer activity against human NCI-H23 cells assessed as total cell growth inhibition incubated for 48 hrs by SRB assay. The class given is functional.
In data set [12] the test system is UACC-257. Kind of data set: Anticancer activity against human UACC-257 cells assessed as total cell growth inhibition incubated for 48 hrs by SRB assay. The format is functional.
The subject of data set [13] is IGROV-1. The experiment in a line: Anticancer activity against human IGROV-1 cells assessed as total cell growth inhibition incubated for 48 hrs by SRB assay. The format is functional.
Data set [14] relates to ACHN. Kind of data set: Anticancer activity against human ACHN cells assessed as total cell growth inhibition incubated for 48 hrs by SRB assay. The format is functional.
Data set [15] deals with TK-10. Kind of data set: Anticancer activity against human TK-10 cells assessed as total cell growth inhibition incubated for 48 hrs by SRB assay. The format is functional.
The subject of data set [16] is MDA-MB-468. Kind of data set: Anticancer activity against human MDA-MB-468 cells assessed as total cell growth inhibition incubated for 48 hrs by SRB assay. The format is functional.
Data set [17] in a line: Cytotoxicity against human WI-38 cells assessed as cell growth inhibition incubated for 48 hrs by SRB assay. The class given is toxicity, cell-based.

In brackets after ≈: the same amount, converted by molar mass.

Usually logD stands for lipophilicity at a set pH, counting ionised and neutral species. The low end stands for lower lipophilicity, the high end for higher lipophilicity. For orientation: Papp A→B means the apparent permeability from the apical to the basolateral side of a cell layer. For orientation: solubility means the concentration that dissolves in the medium under given conditions. High values mean a readily soluble substance, low ones a poorly soluble substance. One may read the GI50 as the concentration giving 50% growth inhibition. Broadly, the TGI is the concentration giving total growth inhibition.

Compound `CCC(C)(C)C(=O)O[C@H]1C[C@@H](C)C=C2C=C[C@H](C)[C@H](CC[C@@H]3C[C@@H](O)CC(=O)O3)[C@H]21` [SIMVASTATIN] showed a logD in data set [1] of 4.45.
As for `CC(CCc1ccccc1)NCC(O)c1ccc(O)c(C(N)=O)c1` (stereo unspecified) [LABETALOL], the apical-to-basolateral permeability (Papp A→B) in data set [2] came to 72 ×10⁻⁶ cm/s. The recovery in data set [3] stood at 91%.
Take `CO[C@H]1/C=C/O[C@@]2(C)Oc3c(C)c(O)c4c(O)c(c(/C=N/N5CCN(C)CC5)c(O)c4c3C2=O)NC(=O)/C(C)=C\C=C\[C@H](C)[C@H](O)[C@@H](C)[C@@H](O)[C@@H](C)[C@H](OC(C)=O)[C@@H]1C` [RIFAMPIN]: the solubility in data set [4] came out at 175 µM (≈ 144 µg/mL). Besides, in data set [1], the logD came to 1.31.
For the compound `COc1cc2cc(Oc3ccc(NC(=O)Nc4ccc(Cl)c(C(F)(F)F)c4)cc3)c(C)nc2cc1OCCN(C)C`, the solubility in data set [4] is 114 µM (≈ 66.9 µg/mL).
Consider `CNC(=O)c1cc(Oc2ccc(NC(=O)Nc3ccc(Cl)c(C(F)(F)F)c3)cc2)ccn1` [SORAFENIB], for which the GI50 turned out to be 2 µM in the data set with CCRF-CEM; 2.51 µM with EKVX; 2 µM in the data set on HOP-62; 2 µM in the data set on NCI-H226; 2 µM with NCI-H23 [5]; 2.51 µM in the data set on NCI-H322M. The GI50 in the data set on NCI-H460 came out at 2.51 µM; in the data set with NCI-H522, 2 µM; with COLO 205, 2 µM; in the data set with HCT-15, 2.51 µM; with HT-29, 2 µM; in the data set on SW-620 it was 2.51 µM. Also, the GI50 with SF-268 was 2.51 µM; in the data set with U-251 it was 2 µM; with Malme-3M, 2 µM; in the data set with M14, 2 µM; in the data set with SK-MEL-2, 2 µM; with SK-MEL-28, 2.51 µM. In addition, the GI50 stood at 2 µM with UACC-257 [6]; 2.51 µM in the data set with IGROV-1 [7]; 2.51 µM in the data set on NCI/ADR-RES; 2.51 µM in the data set with SK-OV-3; 2.51 µM in the data set on A498; 2.51 µM in the data set with ACHN [8]. Also, the 50% growth inhibitory concentration (GI50) in the data set with SN12C was determined as 2.51 µM; in the data set on TK-10 [9] it was 3.98 µM; in the data set on UO-31, 2.51 µM; with PC-3 it was 2 µM; in the data set with MCF7 it was 2.51 µM; in the data set with MDA-MB-231, 1.26 µM. In addition, the GI50 with MDA-MB-468 [10] stood at 3.16 µM. Moreover, the concentration for total growth inhibition (TGI) in the data set with HL-60 was 100 µM; in the data set with MOLT-4, 100 µM; with HOP-92, 5.01 µM; in the data set on NCI-H23 [11] it was 5.01 µM; in the data set on UACC-257 [12] it was 5.01 µM; in the data set on IGROV-1 [13], 10 µM. In addition, the values for the TGI in the data set with ACHN [14], with TK-10 [15] and in the data set with MDA-MB-468 [16] were 10 µM, 10 µM and 7.94 µM, respectively. The GI50 at 48 h in data set [17] is above 20 µM. The compound further returned a solubility in data set [4] of 3.27 µM (≈ 1.52 µg/mL). This compound had a logD in data set [1] of 3.85. Moreover, in data set [2], the Papp A→B turned out to be 16.4 ×10⁻⁶ cm/s.
Turning to `O=C1NC(=O)C(c2ccccc2)(c2ccccc2)N1` [PHENYTOIN], in data set [4], the solubility is 93.1 µM (≈ 23.5 µg/mL).
Take `COc1cc2c(c(OC)c1OC)-c1ccc(OC)c(=O)cc1[C@@H](NC(C)=O)CC2` [COLCHICINE]: in data set [2], the Papp A→B came to 0.3 ×10⁻⁶ cm/s. For the same compound, the recovery in data set [3] worked out at 75.5%.
In the case of `CNC(=C[N+](=O)[O-])NCCSCc1ccc(CN(C)C)o1` [RANITIDINE], in [3], the recovery was 82%.
`COc1cc2cc(Oc3ccc(NC(=O)Nc4cc(C(F)(F)F)cc(C(F)(F)F)c4)cc3)c(C)nc2cc1OC` registered a solubility in [4] of 212 µM (≈ 120 µg/mL). For the same compound, the logD in [1] was found to be 3.1.
